Experimental findings from patent US20200147149A1, “COMPOSITIONS AND METHODS FOR THE MODULATION OF GUT SENSORY CELLS” (Duke University, priority 2017, published 2020) are described below.

The test system of test [1] is vagus nerve. Description: Vagus nerve recording during intraluminal (duodenal) nutrient or CCK perfusion. Type of test: in vivo, mouse. Particulars: D-glucose 150 mM perfused intraluminally, wild-type mice. The protocol: Wild-type control (n=5-9), CckCRE_ChR2-tdTomato (n=6), CckCRE_Halorhodopsin-YFP (n=5), and Vglut1CRE_ChR2-YFP (n=6) mice were used for vagal recordings. Mice were anesthetized with 3 mg/g-mouse urethane 1 hour before surgery then with 0.5-1% isoflurane. A section of neck skin was removed between the jaw and clavicle. The thyroid was reflected bilaterally, and the carotid bundle was exposed using coarse dissection. The carotid nerve was separated from the vagus nerve using a curved blunt probe. Two platinum iridium wires (0.001″ diameter, PTFE coated, 10% Ir 90% Pt; Medwire by Sigmund Cohn Corp) were looped around the vagus nerve for recording. Mineral oil was used to insulate the vagus nerve from surrounding tissue. The small intestine was exposed by removing a section of skin and peritoneum. A 20 gauge gavage needle was surgically inserted through the stomach wall and into the duodenum. The gavage needle was sutured in place beyond the pyloric sphincter. Saline and stimulant tubes were connected to the gavage needle. For optogenetic experiments, a fiber optic cable (FT020, ThorLabs) was threaded through the gavage needle into the lumen of the duodenum. A perfusion exit incision was made 10 cm distal to the pyloric sphincter. During each recording, PBS was constantly perfused through the duodenum using a peristaltic pump (Cole-Parmer) at the lowest setting for a flow rate of ˜400 uL PBS per minute. Stimulation conditions were applied after recording 2 minutes of baseline activity. During whole nutrient stimulation conditions, PBS perfusion was continuous and 200 μL of ENSURE® was perfused through the second tube for 1 minute using a syringe pump. […] During CCK stimulation conditions, PBS perfusion was continuous, and 200 μL of 2.9 μM CCK octapeptide-sulfated (BaChem) was perfused through the second tube for 1 minute using a syringe pump (Fusion 200, Chemyx) for a final concentration of ˜870 nM CCK in PBS (10 μg/kg dose). […] Final stimulant concentrations were determined using the ratio of dilution and confirmed by osmolarity testing (Model 3320 Osmometer, Advanced Instruments Inc.). During 473 nm laser stimulation conditions, PBS perfusion was continuous, and the laser was pulsed for 1 minute at 40 Hz, 4 volts peak voltage, 20% duty cycle (473 nm, 80 mW laser, RGBlase).
Extracellular voltage was recorded from a pair of platinum iridium wires as described above. A differential amplifier and bandpass filter (1000× gain, 300 Hz-5 kHz bandpass filter; A-M Systems LLC) was used and the signal was processed using a data acquisition board and software (20 kHz sampling rate; Signal Express, National Instruments Corp). The raw data was analyzed using a spike sorting algorithm (MATLAB by MathWorks). Spikes were detected using simple threshold detection based on RMS noise. The firing rate was calculated using a Gaussian kernel smoothing algorithm (200-ms time scale).
Stimulation response was quantified as the maximum firing rate after stimulation (stimulant conditions) or during recording (baseline). Each trial serves as its own control by normalizing the maximum firing rate to the average baseline firing rate (defined as the first two minutes of recording, prior to stimulation onset). Mice were excluded from analysis if no sucrose response was present throughout recording. Maximum firing rate was analyzed across genotype, stimulation condition, and their interaction term by ANOVA, followed by HSD post hoc testing (iMP by SAS Institute).

Test [2] deals with enteroendocrine cells. Description: iGluSnFR-HEK cell and CckCRE_tdTomato enteroendocrine cell co-culture, imaging of glutamate release. Type of test: cell-based, mouse. Particulars: D-glucose 40 mM, n=3 cultures. On the procedure: CckCRE_tdTomato enteroendocrine cells were isolated as described above. Isolated cells were mixed with iGluSnFR-HEK cells at a ratio of 10:1, then plated on 1% Matrigel coated coverslips. Control iGluSnFR-HEK cells were plated alone. Cells were incubated for 12-18 hours before imaging. Coverslips were imaged using a multiphoton microscopy system (Bruker Ultima IV with a Chameleon Vision II tunable laser). Imaging frames were captured at 1.876 fps, using 920 nm light. Imaging series were analyzed using Fiji (ImageJ), and cell traces were plotted with Excel.

The test system of test [3] is intestinal CCK enteroendocrine cells. Description: Calcium imaging (GCaMP6s) of enteroendocrine cells in CckCRE_tdTomato intestinal organoids. Type of test: cell-based, mouse. The settings on record: n=3. On the procedure: For neurons, Phox2bCRE_GCaMP6s (n=3) nodose neurons were dissociated and plated. Nodose ganglia were dissected and digested in Liberase (Roche, 5401054001). Neurons were washed and filtered through a 70 μm cell strainer, then plated on 12 mm coverslips and placed in an incubator overnight. Cells were imaged 1-2 days later. Coverslips were placed in the recording chamber of a Zeiss Examiner Z1 and imaged with a Hamamatsu camera (Orca-flash4.0; C11440) using the Zeiss ZEN software package. For enteroendocrine cells, CckCRE_tdTomato organoids with transduced with ΔG-rabies-GCaMP6s. Organoids were imaged using multi photon microscopy 3-4 days after transduction. Imaging buffer (in mM: 140 NaCl, 5 KCl, 2 CaCl2, 2 MgCl2, 10 HEPES) was continuously perfused over the coverslips. […] Images were analyzed with Fiji ([…]), and cell traces were plotted with Matlab.

Entries after “also recorded” stand apart in the source; their conditions may differ.

As to `O=C[C@H](O)[C@@H](O)[C@H](O)[C@H](O)CO` [D-glucose], the vagal firing rate entry in test [1] is “had the same effect; also recorded: stimulate”. Further, in test [2], the “fluorescence response of iGluSnFR-HEK cells in close proximity to enteroendocrine cells (glutamate release)” value is on record as “rapidly fluoresced green; also recorded: elicits a response”. Also, in test [3] (20 mM D-glucose, 40 mM KCl control), the “magnitude of the sugar response as percent fluorescence of the KCl response” value was 56.0±20%. The “calcium transients, percent of the KCl control response” value in test [3] (D-glucose (10 mM) as printed) is recorded as 56.0%±20.0.
